Like-named read-outs stand apart in the source and are kept apart here. Positions of bridges follow the written chain, without caps; N, C: chain ends. Non-standard residues stand in square brackets, D forms with d. Residues, ends and D or L forms follow the SMILES beside them. *: point of attachment. 2Pal = N[C@@H](Cc1ccccn1)C(=O)O; Pent4ynoyl = C#CCCC(=O)*; Abu = CC[C@H](N)C(=O)O
Assays:
Experiment in all cases: cell-based
hNav1.7 = hNav1.7 (Homo sapiens, UniProt Q15858); assay type: cell-based; details: IonWorks Quattro, read-out: IWQ Use Nav1.7
hNav1.5 = hNav1.5 (Homo sapiens, UniProt Q14524)
hNav1.3 = hNav1.3 (Homo sapiens, UniProt Q9NY46); details: IonWorks Quattro, read-out: IWQ Use Nav1.3
[1] = IonWorks Quattro, use-dependent block, hNav1.5, read-out: IWQ Use Nav1.5

Sequence of hNav1.5 (Q14524 whole entry, looked up): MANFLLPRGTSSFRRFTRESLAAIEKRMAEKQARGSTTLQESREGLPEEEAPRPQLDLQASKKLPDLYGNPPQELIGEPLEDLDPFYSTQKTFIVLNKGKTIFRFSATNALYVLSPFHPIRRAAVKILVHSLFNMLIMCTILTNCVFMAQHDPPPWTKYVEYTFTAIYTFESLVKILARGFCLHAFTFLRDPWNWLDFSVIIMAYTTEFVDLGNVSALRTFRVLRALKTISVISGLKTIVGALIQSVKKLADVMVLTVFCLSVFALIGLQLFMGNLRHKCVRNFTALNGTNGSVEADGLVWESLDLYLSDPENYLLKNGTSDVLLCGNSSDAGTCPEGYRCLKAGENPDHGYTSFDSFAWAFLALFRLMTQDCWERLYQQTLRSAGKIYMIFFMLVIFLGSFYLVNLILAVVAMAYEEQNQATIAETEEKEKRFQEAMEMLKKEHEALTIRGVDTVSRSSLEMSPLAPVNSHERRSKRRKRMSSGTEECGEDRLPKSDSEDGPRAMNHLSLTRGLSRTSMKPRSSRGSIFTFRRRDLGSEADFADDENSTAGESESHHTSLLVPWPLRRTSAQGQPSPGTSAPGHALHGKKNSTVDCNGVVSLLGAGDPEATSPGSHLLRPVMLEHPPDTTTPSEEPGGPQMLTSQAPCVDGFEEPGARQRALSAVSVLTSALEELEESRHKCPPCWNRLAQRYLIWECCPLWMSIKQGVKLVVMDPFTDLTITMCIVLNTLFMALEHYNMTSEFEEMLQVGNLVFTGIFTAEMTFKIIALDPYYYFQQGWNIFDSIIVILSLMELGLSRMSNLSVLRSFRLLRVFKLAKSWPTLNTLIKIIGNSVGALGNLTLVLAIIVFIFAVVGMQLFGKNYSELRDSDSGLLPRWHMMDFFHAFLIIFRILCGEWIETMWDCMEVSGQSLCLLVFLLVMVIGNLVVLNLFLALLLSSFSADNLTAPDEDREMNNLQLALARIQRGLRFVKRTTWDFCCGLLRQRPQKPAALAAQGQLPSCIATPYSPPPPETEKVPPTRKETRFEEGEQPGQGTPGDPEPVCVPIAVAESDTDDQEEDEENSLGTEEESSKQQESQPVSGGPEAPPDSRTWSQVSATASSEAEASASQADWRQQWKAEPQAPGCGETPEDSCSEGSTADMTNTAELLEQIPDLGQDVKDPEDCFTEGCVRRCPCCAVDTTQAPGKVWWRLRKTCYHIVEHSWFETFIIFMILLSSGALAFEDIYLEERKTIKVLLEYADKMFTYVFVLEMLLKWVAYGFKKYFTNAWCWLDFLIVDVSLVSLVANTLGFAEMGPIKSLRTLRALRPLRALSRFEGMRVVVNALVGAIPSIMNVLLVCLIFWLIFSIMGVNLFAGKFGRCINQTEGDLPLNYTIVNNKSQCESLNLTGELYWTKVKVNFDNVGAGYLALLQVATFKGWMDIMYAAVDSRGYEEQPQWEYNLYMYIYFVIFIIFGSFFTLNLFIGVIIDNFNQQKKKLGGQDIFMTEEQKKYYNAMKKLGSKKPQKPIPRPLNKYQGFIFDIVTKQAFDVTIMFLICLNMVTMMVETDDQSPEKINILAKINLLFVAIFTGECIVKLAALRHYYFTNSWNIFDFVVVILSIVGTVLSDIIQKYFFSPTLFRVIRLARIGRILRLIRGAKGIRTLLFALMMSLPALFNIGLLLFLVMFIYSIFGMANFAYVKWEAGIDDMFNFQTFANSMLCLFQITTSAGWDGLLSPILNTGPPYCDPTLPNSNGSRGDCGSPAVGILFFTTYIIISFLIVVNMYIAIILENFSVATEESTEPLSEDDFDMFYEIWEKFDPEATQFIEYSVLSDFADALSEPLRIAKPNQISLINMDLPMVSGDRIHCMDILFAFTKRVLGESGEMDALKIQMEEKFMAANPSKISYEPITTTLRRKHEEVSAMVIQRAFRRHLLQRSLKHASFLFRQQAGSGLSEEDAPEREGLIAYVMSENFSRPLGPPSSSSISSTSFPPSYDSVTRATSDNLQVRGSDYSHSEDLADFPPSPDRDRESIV
Sequence of hNav1.3 (Q9NY46 whole entry, looked up): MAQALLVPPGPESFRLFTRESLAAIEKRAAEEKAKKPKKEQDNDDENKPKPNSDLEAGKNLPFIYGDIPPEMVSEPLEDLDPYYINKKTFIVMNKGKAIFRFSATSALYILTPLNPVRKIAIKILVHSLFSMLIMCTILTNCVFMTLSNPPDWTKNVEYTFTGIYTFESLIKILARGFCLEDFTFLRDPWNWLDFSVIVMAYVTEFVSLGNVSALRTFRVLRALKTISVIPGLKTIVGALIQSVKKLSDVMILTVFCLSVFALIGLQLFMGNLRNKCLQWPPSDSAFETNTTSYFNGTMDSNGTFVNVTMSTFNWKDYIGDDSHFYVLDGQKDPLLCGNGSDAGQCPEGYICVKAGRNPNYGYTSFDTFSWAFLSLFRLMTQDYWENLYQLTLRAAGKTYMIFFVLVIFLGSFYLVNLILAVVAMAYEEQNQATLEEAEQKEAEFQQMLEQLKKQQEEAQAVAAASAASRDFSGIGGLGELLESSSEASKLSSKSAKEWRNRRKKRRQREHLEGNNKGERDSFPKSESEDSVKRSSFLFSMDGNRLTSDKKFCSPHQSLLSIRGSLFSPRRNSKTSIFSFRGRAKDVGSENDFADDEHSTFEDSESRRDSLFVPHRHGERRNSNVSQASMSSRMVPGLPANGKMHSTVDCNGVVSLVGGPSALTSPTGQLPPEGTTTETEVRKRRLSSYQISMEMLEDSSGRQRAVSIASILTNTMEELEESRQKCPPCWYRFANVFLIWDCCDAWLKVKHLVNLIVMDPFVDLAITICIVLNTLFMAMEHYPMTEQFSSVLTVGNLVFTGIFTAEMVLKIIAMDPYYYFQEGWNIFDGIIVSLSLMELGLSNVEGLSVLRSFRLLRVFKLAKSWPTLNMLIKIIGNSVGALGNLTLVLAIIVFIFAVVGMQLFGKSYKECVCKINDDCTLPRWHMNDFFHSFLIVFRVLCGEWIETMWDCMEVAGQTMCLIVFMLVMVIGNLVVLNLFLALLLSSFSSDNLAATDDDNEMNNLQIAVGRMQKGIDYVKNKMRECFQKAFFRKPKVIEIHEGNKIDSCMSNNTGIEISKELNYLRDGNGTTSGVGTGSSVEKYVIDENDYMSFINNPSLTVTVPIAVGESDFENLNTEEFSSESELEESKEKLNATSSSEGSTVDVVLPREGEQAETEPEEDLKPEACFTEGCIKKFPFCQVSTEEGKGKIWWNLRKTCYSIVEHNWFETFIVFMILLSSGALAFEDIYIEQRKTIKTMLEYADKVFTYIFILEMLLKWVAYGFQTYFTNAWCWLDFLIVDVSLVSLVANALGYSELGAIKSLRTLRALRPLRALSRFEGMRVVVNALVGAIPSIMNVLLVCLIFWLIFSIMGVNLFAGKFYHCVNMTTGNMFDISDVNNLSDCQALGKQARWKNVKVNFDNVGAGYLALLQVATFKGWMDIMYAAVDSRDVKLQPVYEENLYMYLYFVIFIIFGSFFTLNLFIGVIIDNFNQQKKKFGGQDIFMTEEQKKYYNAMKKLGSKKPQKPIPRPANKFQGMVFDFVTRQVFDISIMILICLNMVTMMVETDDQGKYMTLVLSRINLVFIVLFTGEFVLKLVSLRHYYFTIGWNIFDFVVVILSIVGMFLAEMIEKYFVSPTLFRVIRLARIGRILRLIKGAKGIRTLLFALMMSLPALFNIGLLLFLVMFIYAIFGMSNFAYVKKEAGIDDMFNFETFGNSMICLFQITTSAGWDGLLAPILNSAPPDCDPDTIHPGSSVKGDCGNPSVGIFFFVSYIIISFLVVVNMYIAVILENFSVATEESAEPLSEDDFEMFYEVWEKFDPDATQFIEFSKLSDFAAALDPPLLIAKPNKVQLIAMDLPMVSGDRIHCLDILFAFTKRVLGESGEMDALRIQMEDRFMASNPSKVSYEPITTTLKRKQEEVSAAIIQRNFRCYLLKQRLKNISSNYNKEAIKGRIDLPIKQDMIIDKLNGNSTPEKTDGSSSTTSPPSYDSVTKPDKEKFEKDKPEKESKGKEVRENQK

Compound | IC50 (hNav1.7; use-dependent block, hNav1.7) [µM] | IC50 (hNav1.5; [1]) [µM] | IC50 (hNav1.3; use-dependent block, hNav1.3) [µM] | further results
CC[C@H](C)[C@@H]1NC(=O)[C@@H]2CSSC[C@@H]3NC(=O)[C@H](C(C)C)NC(=O)[C@H](CC(C)C)NC(=O)[C@H](CC(N)=O)NC(=O)[C@@H]4CCCN4C(=O)[C@H](CCCNC(=N)N)NC(=O)[C@H](CSSC[C@H](NC(=O)[C@@H](N)CC(=O)O)C(=O)N[C@@H](CC(C)C)C(=O)NCC(=O)N[C@@H](C)C(=O)N[C@@H](CCSC)C(=O)N[C@@H](CCCNC(=N)N)C(=O)N[C@@H](CCCCN)C(=O)N2)NC(=O)[C@H](CSSC[C@@H](C(=O)N[C@@H](CCCCN)C(=O)N[C@@H](Cc2ccc(O)cc2)C(=O)N[C@@H](CCC(=O)O)C(=O)N[C@@H](Cc2ccccc2)C(N)=O)NC(=O)[C@H](Cc2c[nH]c4ccccc24)NC(=O)[C@H](CCCCN)NC(=O)[C@H](Cc2c[nH]cn2)NC(=O)[C@H]([C@@H](C)O)NC(=O)[C@H](CCCNC(=N)N)NC(=O)[C@H](CO)NC3=O)NC(=O)[C@H](CCCCN)NC(=O)[C@H](CC(=O)O)NC(=O)[C@H](CC(N)=O)NC(=O)[C@H](CC(=O)O)NC(=O)[C@@H]2CCCN2C1=O [compound 419] (H-DCLGAMRKCIPDNDKCCRPNLVCSRTHKWCKYEF-NH2; disulfide 2-17, 9-23, 16-30) | 4 | 9.04 | 3.58 | 
CC[C@H](C)[C@@H]1NC(=O)[C@@H]2CSSC[C@@H]3NC(=O)[C@H](C(C)C)NC(=O)[C@H](CC(C)C)NC(=O)[C@H](CC(N)=O)NC(=O)[C@@H]4CCCN4C(=O)[C@H](CCCNC(=N)N)NC(=O)[C@H](CSSC[C@H](NC(=O)[C@@H](N)CC(=O)O)C(=O)N[C@@H](CC(C)C)C(=O)NCC(=O)N[C@@H](C)C(=O)N[C@@H](Cc4ccccc4)C(=O)N[C@@H](CCCNC(=N)N)C(=O)N[C@@H](CCCCN)C(=O)N2)NC(=O)[C@H](CSSC[C@@H](C(=O)N[C@@H](CCCCN)C(=O)N[C@@H](Cc2ccc(O)cc2)C(=O)N[C@H](C(=O)N[C@@H](Cc2ccccc2)C(N)=O)C(C)C)NC(=O)[C@H](Cc2c[nH]c4ccccc24)NC(=O)[C@H](CCCCN)NC(=O)[C@H](Cc2cnc[nH]2)NC(=O)[C@H](CC(C)C)NC(=O)[C@H](CCCNC(=N)N)NC(=O)[C@H](CO)NC3=O)NC(=O)[C@H](CCCCN)NC(=O)[C@H](CC(=O)O)NC(=O)[C@H](CC(N)=O)NC(=O)[C@H](CC(=O)O)NC(=O)[C@@H]2CCCN2C1=O [compound 263] (H-DCLGAFRKCIPDNDKCCRPNLVCSRLHKWCKYVF-NH2; disulfide 2-17, 9-23, 16-30) | 0.08 |  | 0.05 | IC50 (hNav1.5; IWQ Use Nav1.5 (μM)): 5 µM
CC[C@H](C)[C@@H]1NC(=O)[C@@H]2CSSC[C@@H]3NC(=O)[C@H](C(C)C)NC(=O)[C@H](CC(C)C)NC(=O)[C@H](CC(N)=O)NC(=O)[C@@H]4CCCN4C(=O)[C@H](CCCNC(=N)N)NC(=O)[C@H](CSSC[C@H](NC(=O)[C@@H](N)CC(=O)O)C(=O)N[C@@H](CC(C)C)C(=O)NCC(=O)N[C@@H](C)C(=O)N[C@@H](CC(C)C)C(=O)N[C@@H](CCCNC(=N)N)C(=O)N[C@@H](CCCCN)C(=O)N2)NC(=O)[C@H](CSSC[C@@H](C(=O)N[C@@H](CCCCN)C(=O)N[C@@H](Cc2ccc(O)cc2)C(=O)N[C@H](C(=O)N[C@@H](Cc2ccccc2)C(=O)O)C(C)C)NC(=O)[C@H](Cc2c[nH]c4ccccc24)NC(=O)[C@H](CCCNC(=N)N)NC(=O)[C@H](Cc2c[nH]cn2)NC(=O)[C@H]([C@@H](C)O)NC(=O)[C@H](CCCNC(=N)N)NC(=O)[C@H](CO)NC3=O)NC(=O)[C@H](CCCCN)NC(=O)[C@H](CC(=O)O)NC(=O)[C@H](CC(N)=O)NC(=O)[C@H](CC(=O)O)NC(=O)[C@@H]2CCCN2C1=O [compound 853] (H-DCLGALRKCIPDNDKCCRPNLVCSRTHRWCKYVF-OH; disulfide 2-17, 9-23, 16-30) | > 5 | > 5 | > 5 | 
CC[C@H](C)[C@@H]1NC(=O)[C@@H]2CSSC[C@@H]3NC(=O)[C@H](C(C)C)NC(=O)[C@H](CC(C)C)NC(=O)[C@H](CC(N)=O)NC(=O)[C@@H]4CCCN4C(=O)[C@H](CCCNC(=N)N)NC(=O)[C@H](CSSC[C@H](NC(=O)[C@@H](N)CC(=O)O)C(=O)N[C@@H](CC(C)C)C(=O)NCC(=O)N[C@@H](Cc4ccccc4)C(=O)N[C@@H](Cc4c[nH]c5ccccc45)C(=O)N[C@@H](CCCNC(=N)N)C(=O)N[C@@H](CCCCN)C(=O)N2)NC(=O)[C@H](CSSC[C@@H](C(=O)N[C@@H](CCCCN)C(=O)N[C@@H](Cc2ccc(O)cc2)C(=O)N[C@H](C(=O)N[C@@H](Cc2ccccc2)C(N)=O)C(C)C)NC(=O)[C@H](Cc2c[nH]c4ccccc24)NC(=O)[C@H](CCCNC(=N)N)NC(=O)[C@H](Cc2c[nH]cn2)NC(=O)[C@H]([C@@H](C)O)NC(=O)[C@H](CCCNC(=N)N)NC(=O)[C@H](CO)NC3=O)NC(=O)[C@H](CCCCN)NC(=O)[C@H](CC(=O)O)NC(=O)[C@H](CC(N)=O)NC(=O)[C@H](CC(=O)O)NC(=O)[C@@H]2CCCN2C1=O [compound 448] (H-DCLGFWRKCIPDNDKCCRPNLVCSRTHRWCKYVF-NH2; disulfide 2-17, 9-23, 16-30) | 0.01 | 2.91 | 0.01 | 
CC[C@H](C)[C@@H]1NC(=O)[C@@H]2CSSC[C@@H]3NC(=O)[C@H](C(C)C)NC(=O)[C@H](CC(C)C)NC(=O)[C@H](CC(N)=O)NC(=O)[C@@H]4CCCN4C(=O)[C@H](CCCNC(=N)N)NC(=O)[C@H](CSSC[C@H](NC(=O)[C@@H](N)CC(=O)O)C(=O)N[C@@H](CC(C)C)C(=O)NCC(=O)N[C@@H](Cc4ccccc4)C(=O)N[C@@H](CCSC)C(=O)N[C@@H](CCCNC(=N)N)C(=O)N[C@@H](CCCCN)C(=O)N2)NC(=O)[C@H](CSSC[C@@H](C(=O)N[C@@H](CCCCN)C(=O)N[C@@H](Cc2ccc(O)cc2)C(=O)N[C@H](C(=O)N[C@@H](Cc2ccccc2)C(N)=O)C(C)C)NC(=O)[C@H](Cc2c[nH]c4ccccc24)NC(=O)[C@H](CCCCN)NC(=O)[C@H](Cc2ccccn2)NC(=O)[C@H]([C@@H](C)O)NC(=O)[C@H](CCCNC(=N)N)NC(=O)[C@H](CO)NC3=O)NC(=O)[C@H](CCCCN)NC(=O)[C@H](CC(=O)O)NC(=O)[C@H](CC(N)=O)NC(=O)[C@H](CC(=O)O)NC(=O)[C@@H]2CCCN2C1=O [compound 352] (H-DCLGFMRKCIPDNDKCCRPNLVCSRT[2Pal]KWCKYVF-NH2; disulfide 2-17, 9-23, 16-30) |  |  |  | IC50 (hNav1.7; Table 23, use, […]): 0.09 µM; IC50 (hNav1.5; Table 23, IonWorks Quattro, use, […], read-out: IWQ Use Nav1.5): 7.82 µM; IC50 (hNav1.3; Table 23, use, […]): 0.05 µM
CC[C@H](C)[C@@H]1NC(=O)[C@@H]2CSSC[C@@H]3NC(=O)[C@H](C(C)C)NC(=O)[C@H](CC(C)C)NC(=O)[C@H](CC(N)=O)NC(=O)[C@@H]4CCCN4C(=O)[C@H](CCCNC(=N)N)NC(=O)[C@H](CSSC[C@H](NC(=O)[C@@H](N)CC(=O)O)C(=O)N[C@@H](CC(C)C)C(=O)NCC(=O)N[C@@H](Cc4ccccc4)C(=O)N[C@@H](CCSC)C(=O)N[C@@H](CCCNC(=N)N)C(=O)N[C@@H](CCCCN)C(=O)N2)NC(=O)[C@H](CSSC[C@@H](C(=O)N[C@@H](CCCCN)C(=O)N[C@@H](Cc2ccc(O)cc2)C(=O)N2CCC[C@H]2C(=O)N[C@@H](Cc2ccccc2)C(N)=O)NC(=O)[C@H](Cc2c[nH]c4ccccc24)NC(=O)[C@H](CCCCN)NC(=O)[C@H](Cc2c[nH]cn2)NC(=O)[C@H]([C@@H](C)O)NC(=O)[C@H](CCCNC(=N)N)NC(=O)[C@H](CO)NC3=O)NC(=O)[C@H](CCCCN)NC(=O)[C@H](CC(=O)O)NC(=O)[C@H](CC(N)=O)NC(=O)[C@H](CC(=O)O)NC(=O)[C@@H]2CCCN2C1=O [compound 398] (H-DCLGFMRKCIPDNDKCCRPNLVCSRTHKWCKYPF-NH2; disulfide 2-17, 9-23, 16-30) |  |  |  | IC50 (hNav1.7; Table 26, use, […]): 5.19 µM; IC50 (hNav1.5; Table 26, IonWorks Quattro, use, […], read-out: IWQ Use Nav1.5): 6.93 µM; IC50 (hNav1.3; Table 26, use, […]): 3.34 µM
C#CCCC(=O)N[C@@H](CC(=O)O)C(=O)N[C@H]1CSSC[C@@H]2NC(=O)[C@@H]3CSSC[C@@H](C(=O)N[C@@H](CCCCN)C(=O)N[C@@H](Cc4ccc(O)cc4)C(=O)N[C@H](C(=O)N[C@@H](Cc4ccccc4)C(N)=O)C(C)C)NC(=O)[C@H](Cc4c[nH]c5ccccc45)NC(=O)[C@H](CCCCN)NC(=O)[C@H](Cc4c[nH]cn4)NC(=O)[C@H]([C@@H](C)O)NC(=O)[C@H](CCCNC(=N)N)NC(=O)[C@H](CO)NC(=O)[C@H](CSSC[C@H](NC(=O)[C@H](CCCCN)NC(=O)[C@H](CCCNC(=N)N)NC(=O)[C@H](CC(C)C)NC(=O)[C@H](CC)NC(=O)CNC(=O)[C@H](CC(C)C)NC1=O)C(=O)N[C@@H]([C@@H](C)CC)C(=O)N1CCC[C@H]1C(=O)N[C@@H](CC(=O)O)C(=O)N[C@@H](CC)C(=O)N[C@@H](CC(=O)O)C(=O)N[C@@H](CCCCN)C(=O)N3)NC(=O)[C@H](C(C)C)NC(=O)[C@H](CC(C)C)NC(=O)[C@H](CC(N)=O)NC(=O)[C@@H]1CCCN1C(=O)[C@H](CCCNC(=N)N)NC2=O [compound 758] (Pent4ynoyl-DCLG[Abu]LRKCIPD[Abu]DKCCRPNLVCSRTHKWCKYVF-NH2; disulfide 2-17, 9-23, 16-30) | 0.46 | 32.7 | 0.69 | 

— patent publication US9340590B2 (priority 2011, dated 2016)
